Patent US20250213519A1, “SYNERGY FOR INCREASING INSULIN SENSITIVITY” (Board of Supervisors of Louisiana State University and …, priority 2022, published 2025)
Entries after “also recorded” stand apart in the source; their conditions may differ. Blank lines part the entries; values can stand above or below the compound they belong to.

How the values were obtained:
human adipocytes [1] = test: Lipolysis assay (agonist-stimulated glycerol release); type: cell-based; conditions: agonist exposure 4.5 hours, white and NRBC-treated adipocytes
Protocol: Thermogenesis is fueled by lipolysis, so we determined whether agonist-stimulated glycerol release, a measure of lipolysis, reflected the increases in receptors and lipolysis machinery in NRBC-treated adipocytes. First, adipocyte cultures from four donors who had obesity were treated with cell medium (untreated control cells) or NRBC for seven days. On the day of the acute lipolysis assay, cells were exposed to the individual receptor agonists for […] in buffer and glycerol released into the cell supernatant was measured. Non-hydrolyzable 8-cpt-cAMP, a potent activator of PKA signaling, was also evaluated in each experiment as a positive control since it bypasses individual receptors and measures the maximum capacity for lipolysis (36). The βARs, PTHR, MC1R, GPER and ADORA2B are all stimulatory G-protein (Gs) coupled receptors and signal through the CAMP-PKA signal transduction mechanism. NPR1 is not a Gs-coupled receptor and signals through an alternate mechanism of guanylate cyclase-cGMP-protein kinase G (PKG).
Cells were differentiated in 96-well plates and treated with cell medium (untreated) or NRBC for seven days. On the day of the lipolysis assay, cells were exposed for 4.5 hours to buffer (KRB with 1% BSA) or receptor agonists dissolved in buffer. Agonists were used at concentrations shown to give maximum responses and were: 8-Cpt-cAMP 200 μM non-hydrolyzable PKA activator of maximum stimulated lipolysis (cAMP) (36), atrial natriuretic peptide 0.1 μM for NPR1 and NPR3(37), parathyroid hormone (amino acids 1-34) 1 μM for PTHR(38), isoproterenol 1 μM all βARs and dobutamine 1 μM for β1AR (39), estradiol 1 μM for GPER (40), growth hormone 250 ng/ml for GHR (41), adrenocorticotropin hormone 1 μM for MC1R (42), bile acid chenodeoxycholic acid 30 μM for TGR5(43), adenosine 1 μM for ADORA1 and ADORA2B (44), and menthol 100 μM for TRPM8(45). Supernatants were removed for measurement of glycerol released using Glycerol Reagent A, and concentrations were determined using a standard curve. Data are from four or five experiments each with cells from different donors with BMI from 27 to 36.

CDK5 = CDK5 (Homo sapiens, UniProt Q00535); conditions: cited from earlier work
CDK5, sequence (Q00535 whole entry, species assumed): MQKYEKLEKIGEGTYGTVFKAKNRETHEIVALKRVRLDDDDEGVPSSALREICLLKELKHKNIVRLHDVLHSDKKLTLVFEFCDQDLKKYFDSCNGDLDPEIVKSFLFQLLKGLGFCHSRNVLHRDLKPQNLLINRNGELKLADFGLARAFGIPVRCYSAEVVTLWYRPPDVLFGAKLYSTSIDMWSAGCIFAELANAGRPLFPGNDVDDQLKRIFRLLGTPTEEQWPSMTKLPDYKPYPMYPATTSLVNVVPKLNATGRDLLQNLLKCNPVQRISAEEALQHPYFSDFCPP
CDK5, sequence (Q15078 whole entry partner, species assumed): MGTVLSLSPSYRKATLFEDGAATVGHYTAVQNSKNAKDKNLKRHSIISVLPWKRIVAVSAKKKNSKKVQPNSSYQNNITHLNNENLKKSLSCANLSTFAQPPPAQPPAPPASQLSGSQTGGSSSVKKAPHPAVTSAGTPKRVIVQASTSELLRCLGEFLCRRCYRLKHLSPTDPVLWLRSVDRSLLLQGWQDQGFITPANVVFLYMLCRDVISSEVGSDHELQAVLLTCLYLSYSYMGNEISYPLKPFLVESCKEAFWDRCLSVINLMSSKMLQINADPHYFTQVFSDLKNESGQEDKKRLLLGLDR

human adipocytes [2] = test: mRNA levels (qRT-PCR) in human adipocyte cultures treated for seven days; type: cell-based; conditions: for UCP1 gene expression, carotenoid combined with NR: 2 μM carotenoid + 8 μM NR, seven days, vs NR alone; for gene expression, β-carotene added to naringenin: 2 μM β-carotene + 8 μM naringenin extract, 7 days
Text: In adipocytes, CDK5 inhibitors reduce adipogenesis and increase genes for energy expenditure by altering PPARγ target gene selection. We measured the expression of the PPARα/γ direct target gene UCP1 after treating human adipocyte cultures with CDK5-inhibiting flavonols combined with naringenin for seven days.
Human adipose-derived stem cells from overweight and obese female donors were purchased from LaCell, LLC (New Orleans, Louisiana) or isolated from lipoaspirate waste donated post-surgery from women with obesity using methods as previously described (31). Cells were seeded, maintained until two days after becoming confluent, and differentiated into adipocytes in the presence of rosiglitazone and isobutylmethylxanthine for five days as previously described (25). […], dissolved in DMSO at 1000×, started 5 days after the differentiation period and lasted for seven days in adipocyte maintenance medium with heat inactivated serum, before RNA and protein were isolated from adipocyte cultures.
Quantitative reverse transcriptase and real-time PCR were conducted in one reaction with the gene-specific reverse PCR primer also priming the cDNA synthesis as previously described (25). Primer-probe sequences for UCP1, GLUT4, ATGL, adiponectin, PGC-1α and ribosomal RPL13A, used to adjust target gene values for total RNA in each sample, have been previously reported (25). […] Predesigned human primer and probe sets from Thermofisher Scientific are PM20D1 Hs00399438_m1; ANGPTL4 Hs00211522_m1; GDF11 Hs00195156_m1; S100B Hs00902901_m1.

human adipocytes [3] = test: as above; type: cell-based; conditions: for gene expression, carotenoid alone: 2 μM carotenoid individually, seven days
human adipocytes [4] = test: Protein levels by Western blotting in human adipocytes treated for seven days; type: cell-based; conditions: 8 μM NR or 50 nM myricetin, 7 days
Text: Since we saw an increase in SIRT3 mRNA and myricetin upregulates SIRT3 protein in adipocytes from mice, we analyzed levels of SIRT3 protein in human adipocytes treated for seven days with the same concentrations of compounds. Protein was isolated from adipocytes and analyzed on immunoblots probed with antibodies that specifically bind human SIRT3 or human β-actin. […] However, adding myr to NR+BC boosted SIRT3 protein by 37%.
Human adipose-derived stem cells from overweight and obese female donors were purchased from LaCell, LLC (New Orleans, Louisiana) or isolated from lipoaspirate waste donated post-surgery from women with obesity using methods as previously described (31). Cells were seeded, maintained until two days after becoming confluent, and differentiated into adipocytes in the presence of rosiglitazone and isobutylmethylxanthine for five days as previously described (25). Treatments of adipocytes with 8 μM NR and 2 μM carotenoid, dissolved in DMSO at 1000×, started 5 days after the differentiation period and lasted for seven days in adipocyte maintenance medium with heat inactivated serum, before RNA and protein were isolated from adipocyte cultures.
Whole cell protein was isolated from differentiated cell cultures after treatment for seven days, lysed with RIPA buffer containing protease and phosphatase inhibitors, and pushed through a 20-gauge needle four times to disrupt organelles. Fifty micrograms of total cell protein were loaded per lane and resolved in 7.5% SDS-PAGE gels, transferred to nitrocellulose membranes, and probed overnight at 4° C. with specific primary antibodies. Anti-rabbit or -mouse secondary antibodies conjugated to horseradish peroxidase were used for detection of target proteins. Image J was used to quantify protein bands on Western blots. To adjust for variations in total protein loaded in each lane, β-actin was used.

human adipocytes [5] = test: as above; type: cell-based
[6] = Case study of naringenin in an individual with obesity and diabetes; type: in vivo, human
Protocol: Next, we gave 150 mg of naringenin extract in 500 mg of orange extract three times a day by capsule to a person who was obese and had type 2 diabetes that was only treated with diet. They took the capsule three times a day for 8 weeks without going on a diet or changing their exercise habits. […] For an obesity drug to get approval for weight loss it should cause a loss of 5%, so the results were close to what one can expect for a drug. Their insulin resistance went down by 20% and their metabolic rate went up by 3 percent.
We went back to the person whom we tested at 150 mg three times a day with naringenin, and tested them with 300 mg three times a day. They maintained the loss on the lower dose of naringenin and had also lost further weight, so they were below their natural weight set point.

human fat cells = test: Oxygen consumption rate of human fat cells; type: cell-based
Text: Referring to FIG. 8, cells consume oxygen while metabolizing fat for thermogenic energy expenditure, and we directly measured oxygen consumption rate.

clinical = conditions: human, in vivo, 150 mg
[7] = 150 mg three times a day, 8 weeks
[8] = 150 mg three times a day, eight weeks

Compound: Nc1ncnc2c1ncn2[C@@H]1O[C@H](CO)[C@@H](O)[C@H]1O [adenosine]
lipolysis stimulated by the receptor agonist itself (human adipocytes [1]): no effect

Compound: C[C@]12CC[C@@H]3c4ccc(O)cc4CC[C@H]3[C@@H]1CC[C@@H]2O [estrogen, estradiol]
lipolysis stimulated by the receptor agonist itself (human adipocytes [1]): small reduction in lipolysis; also recorded: neither growth hormone nor estrogen stimulated lipolysis

Compound: O=c1c(O)c(-c2ccc(O)cc2)oc2cc(O)cc(O)c12 [kaempferol, reference compound]
CDK5 kinase activity inhibition EC50 (in words) (CDK5): low micromolar range
EC50 (CDK5; read-out: CDK5 inhibition EC50): 66 µM

Compound: CC1=C[C@H](O)CC(C)(C)[C@H]1/C=C/C(C)=C/C=C/C(C)=C/C=C/C=C(C)/C=C/C=C(C)/C=C/C1=C(C)C[C@@H](O)CC1(C)C [lutein]
UCP1 gene expression, carotenoid combined with NR (human adipocytes [2]): synergistic; also recorded: synergistically enhanced levels of UCP1
gene expression, carotenoid alone (human adipocytes [3]): no effect on gene expression

Compound: CC(C)=CCC/C(C)=C/C=C/C(C)=C/C=C/C(C)=C/C=C/C=C(C)/C=C/C=C(C)/C=C/C=C(\C)CCC=C(C)C [lycopene]
UCP1 gene expression, carotenoid combined with NR (human adipocytes [2]): did not alter NR-stimulated UCP1 levels
UCP1 gene expression, carotenoid combined with NR (human adipocytes [2]; listed as Lycopene): did not alter the NR response
gene expression, carotenoid alone (human adipocytes [3]): no effect on gene expression

Cmax (clinical): ~16 µM
half-life (clinical): 3 h
Compound: O=C1C[C@@H](c2ccc(O)cc2)Oc2cc(O)cc(O)c21 [naringenin]
UCP1 and GLUT4 mRNA, naringenin concentration curve (human adipocytes [2]; naringenin 0.03 μM to 8 μM with constant 3 μM myricetin): increased gene expression in a concentration-dependent manner
adiponectin production (human adipocytes [2]; naringenin alone (FIG. 9)): increased production of a secreted hormone (adiponectin)
SIRT3 protein levels, single agent (human adipocytes [4]): upregulate SIRT3 protein levels
PGC-1α protein levels vs untreated control (human adipocytes [5]; 8 μM NR, 2 μM BC, 7 days): approximately two-fold
protein levels of PPARα, PPARγ, PGC-1α and NAMPT (human adipocytes [5]; NR alone): did not upregulate protein levels
UCP-1 and adiponectin protein levels (human adipocytes [5]; naringenin 8 μM over 7 days (FIG. 10)): protein levels for UCP-1 and adiponectin increased
body weight loss [6, 7]: 2.3%
decrease in insulin resistance [6, 7]: 20%
increase in metabolic rate [6, 7]: 3%
increase in energy expenditure [6, 8]: 3.5%
reduction of fasting insulin concentrations [6, 8]: 20%
body weight at higher dose ([6]; 300 mg three times a day, same person): only maintained their weight loss without adding further weight loss
diabetes status ([6]; after weight loss following the 150 mg dose): resolved their diabetes
basal and maximal energy expenditure (oxygen consumption rate) (human fat cells): strong inducer of basal and maximal energy expenditure
UCP-1 expression (human adipocytes [3]; human fat cells in culture and adult adipose specimens, naringenin alone): caused an increase in Uncoupling Protein-1 (UCP-1)

Compound: CC1=C(/C=C/C(C)=C/C=C/C(C)=C/C=C/C=C(C)/C=C/C=C(C)/C=C/C2=C(C)CCCC2(C)C)C(C)(C)CCC1 [β-carotene, β-Carotene]
SIRT3 mRNA expression (human adipocytes [2]; 2 μM BC added to NR+myr, vs NR or NR+myricetin): significantly increased SIRT3 expression
UCP1 gene expression, carotenoid combined with NR (human adipocytes [2]; listed as BC): synergistic; also recorded: synergistically enhanced levels of UCP1
gene expression, β-carotene added to naringenin (human adipocytes [2]): synergistically enhances the effects of naringenin on gene expression; also recorded: synergistically induces gene expression
gene expression, β-carotene added to naringenin (human adipocytes [2]; listed as beta-carotene): synergistically increases expression of genes for thermogenic energy expenditure and insulin sensitivity
gene expression, carotenoid alone (human adipocytes [3]): no effect on gene expression

lipolysis stimulated by the receptor agonist itself (human adipocytes [1]): no effect
Compound: adrenocorticotropin hormone (SYSMEHFRWGKPVGKKRRPVKVYPNGAEDESAEAFPLEF; Corticotropin; UniProt P01189 138-176, looked up) [ACTH, MC1R agonist used in lipolysis assay]

Compound: growth hormone: human pituitary growth hormone, GHR agonist in lipolysis assay
lipolysis stimulated by the receptor agonist itself (human adipocytes [1]): neither growth hormone nor estrogen stimulated lipolysis

lipolysis stimulated by the receptor agonist itself (human adipocytes [1]): highest in control white adipocytes
Compound: parathyroid hormone (1-34) [PTH]
